Reference: patent publication EP0118867A2, “Substituted 4,10-dihydro-10-oxothieno benzoxepins, a method of preparing the same and intermediate thereof and their use as medicaments” (HOECHST-ROUSSEL PHARMACEUTICALS INCORPORATED, priority 1983, dated 1984)
Like-named read-outs stand apart in the source and are kept apart here.

Columns and labels:
[1] = test system: 2-phenyl-1,4-benzoquinone-induced writhing; assay: 2-phenyl-1,4-benzoquinone-induced writhing test (analgesia); type: in vivo, mice; conditions: Mus musculus, po
Source text: Compounds of the present invention are also useful as analgesic agents due to their ability to alleviate pain in mammals. […] Exptl. Biol. Med., 95, 729 (1957)].

[2] = test system: carrageenin induced rat paw edema; assay: carrageenin induced rat paw edema anti-inflammatory assay; type: in vivo; conditions: for inhibition at 20 mg/kg: read-out: Time Response at 20 mg/kg % Inhibition; for ED50: po; for inhibition at 25 mg/kg: read-out: Time Response at 25 mg/kg % Inhibition
Source text: The compounds of the present invention are useful as anti-inflammatory agents due to their ability to suppress inflammation in mammals. […] Exptl. Biol. Med., III 544 (1962), J. Pharmacol. Exp. 141 […]] .

[3] = analgesic data, read-out: ED50 (p.o.)
[4] = pretreatment 6 hrs, read-out: ED50

O=C(CCCc1ccc2c(c1)C(=O)c1sccc1CO2)OCC(O)CO (racemic) [1-[(4,10-Dihydro-10-oxothieno[3,2-c][1]-benzoxepin-8-yl)-4-butyryl] glyceride]
ED50 [1, 3]: 9.4 mg/kg

CC(CCC(=O)O)c1ccc2c(c1)C(=O)c1sccc1CO2 (racemic) [(±)-4-(4,10-Dihydro-10-oxothieno[3,2-c][1]benzoxepin-8-yl)pentanoic acid]
inhibition at 20 mg/kg ([2]; pretreatment time 1 hr.): 25% | inhibition at 20 mg/kg ([2]; pretreatment time 2 hrs.): 23% | inhibition at 20 mg/kg ([2]; pretreatment time 4 hrs): 28%

CC1(C)OCC(COC(=O)CCCc2ccc3c(c2)C(=O)c2sccc2CO3)O1 (racemic) [(±)[2,2-Dimethyl-1,3-dioxolan-4-yl]methyl 4-[4,10-dihydro-10-oxothieno[3,2-c][1]benzoxepin-8-yl]butyrate]
inhibition at 20 mg/kg ([2]; pretreatment time 2 hrs.): 20% | inhibition at 20 mg/kg ([2]; pretreatment time 6 hrs): 61% | inhibition at 20 mg/kg ([2]; pretreatment time 18 hrs): 32% | inhibition at 20 mg/kg ([2]; pretreatment time 24 hrs): 41% | ED50 [2, 4]: 14.5 mg/kg | ED50 [1, 3]: 11.2 mg/kg

CC(C)OC(=O)CCCc1ccc2c(c1)C(=O)c1sccc1CO2 [4-(4,10-Dihydro-10-oxothieno[3,2-c][1]benzoxepin-8-yl)-butyric acid isopropyl ester]
inhibition at 20 mg/kg ([2]; pretreatment time 2 hrs.): 31% | inhibition at 20 mg/kg ([2]; pretreatment time 6 hrs): 71% | inhibition at 20 mg/kg ([2]; pretreatment time 18 hrs): 57% | inhibition at 20 mg/kg ([2]; pretreatment time 24 hrs): 26% | ED50 ([2]; pretreatment 2 hrs, estimated, read-out: Estimated ED50): 21.8 mg/kg | ED50 [1, 3]: 8.5 mg/kg

COC(=O)CCCc1ccc2c(c1)C(=O)c1sccc1CO2 [4-(4,10-Dihydro-10-oxothieno[3,2-c][1]benzoxepin-8-yl)-butyric acid methyl ester]
inhibition at 20 mg/kg ([2]; pretreatment time 2 hrs.): 24% | inhibition at 20 mg/kg ([2]; pretreatment time 6 hrs): 54% | inhibition at 20 mg/kg ([2]; pretreatment time 8 hrs): 62% | inhibition at 20 mg/kg ([2]; pretreatment time 24 hrs): 16% | ED50 [2, 4]: 10.3 mg/kg | ED50 [1, 3]: 10.8 mg/kg

O=C(O)CCCc1ccc2c(c1)C(=O)c1sccc1CO2 [4-(4,10-dihydro-10-oxothieno[3,2-c][1]benzoxepin-8-yl)-butyric acid]
inhibition at 25 mg/kg ([2]; pretreatment time 0.5 hr.): 49% | inhibition at 25 mg/kg ([2]; pretreatment time 1 hr): 52% | inhibition at 25 mg/kg ([2]; pretreatment time 2 hrs.): 79% | inhibition at 25 mg/kg ([2]; pretreatment time 3 hrs): 94% | inhibition at 25 mg/kg ([2]; pretreatment time 4 hrs): 95% | inhibition at 25 mg/kg ([2]; pretreatment time 6 hrs): 67% | inhibition at 25 mg/kg ([2]; pretreatment time 8 hrs): 47% | ED50 ([2]; 1 h, p.o., pretreatment 60 min, read-out: ED50): 77.9 mg/kg

CCOC(=O)CCCc1ccc2c(c1)C(=O)c1sccc1CO2 [Ethyl 4-[4,10-dihydro-10-oxothieno[3,2-c][1]benzoxepin-8-yl]butyrate]
inhibition at 20 mg/kg ([2]; pretreatment time 2 hrs.): 40% | inhibition at 20 mg/kg ([2]; pretreatment time 6 hrs): 48% | inhibition at 20 mg/kg ([2]; pretreatment time 18 hrs): 15% | inhibition at 20 mg/kg ([2]; pretreatment time 24 hrs): 22% | ED50 [1, 3]: 8.2 mg/kg

CC1=C(CC(=O)O)c2cc(F)ccc2/C1=C\c1ccc([S+](C)[O-])cc1 (stereo not shown) [sulindac, reference compound]
ED50 ([2]; in a similar test, read-out: anti-inflammatory ED50): 10.7 mg/kg | ED50 ([1]; in a similar test, read-out: analgesic ED50): 6.2 mg/kg

CC(C)(C)OC(=O)CCCc1ccc2c(c1)C(=O)c1sccc1CO2 [t-Butyl 4-[4,10-dihydro-10-oxothieno-[3,2-c][1]benzoxepin-8-yl]butyrate]
inhibition at 20 mg/kg ([2]; pretreatment time 1 hr.): 42% | inhibition at 20 mg/kg ([2]; pretreatment time 2 hrs.): 49% | inhibition at 20 mg/kg ([2]; pretreatment time 4 hrs): 43%
